Measured values published in patent publication US12110287B2, “Heterocyclic derivatives as Nav1.7 and Nav1.8 blockers” (RaQualia Pharma Inc., priority 2018, dated 2024).

How the values were obtained:
Nav1.7 [1] = molecular target: T1, Nav1.7 (Homo sapiens, UniProt Q15858); assay: Electrophysiology assay (whole cell patch clamp), affinity to inactivated state; assay type: cell-based; design: expressed in transfected cells; details: affinity to inactivated state (Kinact), read-out: activity (Ki) against Nav1.7
Description: Whole cell patch clamp recording is used to assess the efficacy or selectivity of Na (Sodium) channel blocker on human voltage gated sodium channels. Na channel expressing cells are dissociated by 0.05% Trypsin-EDTA or Accutase, and then seeded on cover glass for 2-24 hours.
Manual patch clamp recordings are conducted at rt using the voltage-clamp amplifier (Axon Instruments or HEKA electronik). Electrodes are pulled with P-97 electrode puller (Sutter Instrument). The electrode resistances are 1-3 MOhm when intercellular solution is filled. Currents are lowpass filtered between 2-5 kHz and digitally sampled at 10 kHz. […]
After whole-cell configuration is achieved, cell is monitored at least 10 minutes to allow cell dialysis with pipette solution. […]
Peak currents evoked by Test 1 and Test 2 pulses are sampled with Clampex (Axon Instruments) or Pulse+Pulse Fit (HEKA). Averaged peak currents under vehicle or test compounds are calculated from 3 data points at end of each condition.
Inhibitory effects (% inhibition) on peak currents at Test 1 or Test 2 pulse are plotted against test concentration and IC50 values at Test 1 (Closed IC50) or Test 2 (Inactivated IC50) are calculated with Hill equation, respectively. […]
After whole-cell configuration is achieved, the cell is monitored at least 10-15 minutes to allow cell dialysis with pipette solution. […]

Nav1.7 [2] = molecular target: T1, Nav1.7; assay: EFS-FRET assay; assay type: cell-based; design: expressed in transfected cells; host or cells: CHO (Chinese hamster ovary) cells; details: CHO cells expressing human Nav1.7 channels, read-out: IC50 against Nav1.7
Description: This screen is used to determine the effects of compounds on human Nav1.7 channels, utilizing electrical field stimulation (EFS) system in 96-well plate format on FDSS (Hamamatsu Photonics) platform. The changes of membrane potential are monitored with FRET dye pair, DiSBAC2(3) and PTS18.
CHO (Chinese hamster ovary) cells expressing human Nav1.7 channels are grown in T225 flasks, in a 5% CO2 humidified incubator to about 80% confluence. Media composition consists of HAM/F12 with Glutamax I, 10% FCS, 100 units/mF penicillin and 100 microgram/mF hygromycin.
• Seed each cell lines (1×10^5 cells/well) into 96-well plates prior to experimentation. • Incubate at 37° C. in 5% CO2 for 24 hours. • Wash each well with assay buffer (140 mM NaCl, 4.5 mM KCl, 10 mM D-Glucose, 2 mM CaCl2, 1 mM MgCl2, 10 mM HEPES, pH 7.4 adjusted with NaOH) twice. • Add 1st loading solution containing 10 microM PTS18 and 0.06% Pluronic F-127 in assay buffer. • Incubate the plate at rt in dark for 1 hour. • Remove 1st loading solution and add 2nd loading solution containing 12.5 microM DiSBAC2(3), 1.25 mM Xylene Fast Yellow and 0.0075% Pluronic F-127 in assay buffer. • Place the plate under the dark at rt for 25 minutes. • Add compound solutions into the assay plate. • Set the assay plate in FDSS and place an EFS device on the plate. • Measure EFS-induced fluorescent response by FDSS.
The data are analyzed and reported as normalized ratios of intensities measured at […]. The process of calculating these ratios is performed as follows:
This analysis is performed using a computerized specific program designed for FDSS generated data. Fluorescence ratio values are plotted using XLfit to determine an IC50 value for each compound.

T1 sequence (Q15858 whole entry): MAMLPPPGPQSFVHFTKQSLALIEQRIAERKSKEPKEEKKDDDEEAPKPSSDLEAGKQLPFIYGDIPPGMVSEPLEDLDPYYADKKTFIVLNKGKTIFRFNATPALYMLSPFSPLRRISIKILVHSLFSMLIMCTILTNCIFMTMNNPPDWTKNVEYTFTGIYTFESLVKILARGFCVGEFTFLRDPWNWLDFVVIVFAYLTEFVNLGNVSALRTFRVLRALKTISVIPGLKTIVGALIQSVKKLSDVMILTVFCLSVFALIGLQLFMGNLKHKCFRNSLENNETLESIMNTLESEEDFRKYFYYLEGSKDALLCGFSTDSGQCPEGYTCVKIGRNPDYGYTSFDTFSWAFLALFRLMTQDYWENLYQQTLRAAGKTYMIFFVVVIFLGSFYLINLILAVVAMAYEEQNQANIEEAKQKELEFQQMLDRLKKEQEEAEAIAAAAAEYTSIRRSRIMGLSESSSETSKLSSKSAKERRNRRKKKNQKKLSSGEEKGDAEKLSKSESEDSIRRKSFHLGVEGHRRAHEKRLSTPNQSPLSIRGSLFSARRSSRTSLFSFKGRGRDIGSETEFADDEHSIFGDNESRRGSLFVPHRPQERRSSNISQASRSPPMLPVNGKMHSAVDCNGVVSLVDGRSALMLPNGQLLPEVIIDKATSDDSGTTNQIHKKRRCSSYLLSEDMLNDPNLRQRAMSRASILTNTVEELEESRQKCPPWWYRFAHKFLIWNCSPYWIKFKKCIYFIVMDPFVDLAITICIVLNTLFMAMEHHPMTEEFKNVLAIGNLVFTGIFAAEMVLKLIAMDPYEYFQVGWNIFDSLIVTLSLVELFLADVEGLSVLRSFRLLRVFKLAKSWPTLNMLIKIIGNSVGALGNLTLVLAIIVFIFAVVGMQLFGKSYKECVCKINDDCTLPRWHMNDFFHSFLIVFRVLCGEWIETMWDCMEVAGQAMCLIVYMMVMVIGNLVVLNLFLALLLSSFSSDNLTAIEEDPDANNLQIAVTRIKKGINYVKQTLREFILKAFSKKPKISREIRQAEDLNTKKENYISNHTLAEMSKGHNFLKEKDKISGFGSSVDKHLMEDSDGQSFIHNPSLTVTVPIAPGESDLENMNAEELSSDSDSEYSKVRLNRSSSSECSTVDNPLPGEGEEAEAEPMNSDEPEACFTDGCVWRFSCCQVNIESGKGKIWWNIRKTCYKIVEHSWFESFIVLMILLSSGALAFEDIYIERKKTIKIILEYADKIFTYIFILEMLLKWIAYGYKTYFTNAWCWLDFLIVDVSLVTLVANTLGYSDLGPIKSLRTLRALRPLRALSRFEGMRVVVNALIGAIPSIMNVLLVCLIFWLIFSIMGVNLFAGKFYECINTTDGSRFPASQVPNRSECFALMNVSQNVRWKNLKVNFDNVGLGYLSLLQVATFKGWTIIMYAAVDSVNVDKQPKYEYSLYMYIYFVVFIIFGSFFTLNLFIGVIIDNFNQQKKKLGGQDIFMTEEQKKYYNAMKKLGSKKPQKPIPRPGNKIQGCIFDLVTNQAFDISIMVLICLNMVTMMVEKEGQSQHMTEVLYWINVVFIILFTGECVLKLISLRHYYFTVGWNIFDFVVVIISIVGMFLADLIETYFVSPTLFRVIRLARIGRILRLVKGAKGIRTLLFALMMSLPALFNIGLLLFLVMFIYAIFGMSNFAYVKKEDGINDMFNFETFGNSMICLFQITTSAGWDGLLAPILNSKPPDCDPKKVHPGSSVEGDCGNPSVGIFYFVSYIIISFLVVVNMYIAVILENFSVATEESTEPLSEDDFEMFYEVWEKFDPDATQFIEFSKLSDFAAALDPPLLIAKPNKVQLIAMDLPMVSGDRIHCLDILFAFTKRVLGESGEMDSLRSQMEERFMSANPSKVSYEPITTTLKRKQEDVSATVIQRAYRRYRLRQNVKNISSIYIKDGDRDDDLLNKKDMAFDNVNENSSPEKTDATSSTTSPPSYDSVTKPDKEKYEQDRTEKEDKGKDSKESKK

| SMILES | Ki (Nav1.7 [1]) [nM] | IC50 (Nav1.7 [2]) [nM] |
| --- | --- | --- |
| O=C(N[C@@H]1CCN(c2ncc(C(F)(F)F)cc2Cl)C1)c1ccnc(NC(=O)C2CC2)c1 [Example 9] | < 200 | < 500 |
| O=C(N[C@@H]1CCN(c2ncc(C(F)(F)F)cc2Cl)C1)c1ccnc(NC(=O)C2CCC2)n1 [Example 23] |  | < 500 |
| COc1cc(C(F)(F)F)cnc1N1CC[C@@H](NC(=O)c2ccnc(NC(=O)C3CC3)c2)C1 [Example 81] |  | < 500 |
